From patent publication US7282496B2, “Allenic aryl sulfonamide hydroxamic acids as matrix metalloproteinase and TACE inhibitors” (Wyeth Holdings Corporation, priority 2001, dated 2007)

How the values were obtained:
Assay type in all cases: biochemical
MMP-1 = target: T1, MMP-1 (Homo sapiens, UniProt P03956); experiment: MMP-1 inhibition, thiopeptide or fluorescent peptide substrate test procedure; conditions: for IC50: in vitro enzyme inhibition
T1 sequence (P03956 100-469): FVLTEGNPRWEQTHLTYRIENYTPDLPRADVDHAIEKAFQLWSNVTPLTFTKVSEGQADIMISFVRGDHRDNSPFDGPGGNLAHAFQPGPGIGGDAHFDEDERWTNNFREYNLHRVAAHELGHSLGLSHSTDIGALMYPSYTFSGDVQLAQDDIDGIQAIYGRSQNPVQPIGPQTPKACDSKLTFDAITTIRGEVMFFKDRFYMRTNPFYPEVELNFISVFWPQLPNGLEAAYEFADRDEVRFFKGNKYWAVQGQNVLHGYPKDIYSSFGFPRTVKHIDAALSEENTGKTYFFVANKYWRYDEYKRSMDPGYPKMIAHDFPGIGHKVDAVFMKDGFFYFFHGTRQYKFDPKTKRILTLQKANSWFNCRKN
Experimental: (§1) Test Procedures for Measuring MMP-1, MMP-9, and MMP-13 Inhibition
(§2) These standard pharmacological test procedures are based on the cleavage of a thiopeptide substrates such as Ac-Pro-Leu-Gly(2-mercapto-4-methyl-pentanoyl)-Leu-Gly-OEt by the matrix metalloproteinases MMP-1, MMP-13 (collagenases) or MMP-9 (gelatinase), which results in the release of a substrate product that reacts calorimetrically with DTNB (5,5′-dithiobis(2-nitro-benzoic acid)). The enzyme activity is measured by the rate of the color increase. The thiopeptide substrate is made up fresh as a 20 mM stock in 100% DMSO and the DTNB is dissolved in 100% DMSO as a 100 mM stock and stored in the dark at room temperature. Both the substrate and DTNB are diluted together to 1 mM with substrate buffer (50 mM HEPES pH 7.5, 5 mM CaCl2) before use. The stock of enzyme is diluted with buffer (50 mM HEPES, pH 7.5, 5 mM CaCl2, 0.02% Brij) to the desired final concentration. The buffer, enzyme, vehicle or inhibitor, and DTNB/substrate are added in this order to a 96 well plate (total reaction volume of 200 μl) and the increase in color is monitored spectrophotometrically for 5 minutes at 405 nm on a plate reader and the increase in color over time is plotted as a linear line.
(§3) Alternatively, a fluorescent peptide substrate is used. In this test procedure, the peptide substrate contains a fluorescent group and a quenching group. Upon cleavage of the substrate by an MMP, the fluorescence that is generated is quantitated on the fluorescence plate reader. The assay is run in HCBC assay buffer (50 mM HEPES, pH 7.0, 5 mM Ca^+2, 0.02% Brij, 0.5% Cysteine), with human recombinant MMP-1, MMP-9, or MMP-13. The substrate is dissolved in methanol and stored frozen in 1 mM aliquots. For the assay, substrate and enzymes are diluted in HCBC buffer to the desired concentrations. Compounds are added to the 96 well plate containing enzyme and the reaction is started by the addition of substrate. The reaction is read (excitation 340 nm, emission 444 nm) for 10 min. and the increase in fluorescence over time is plotted as a linear line.
(§4) For either the thiopeptide or fluorescent peptide test procedures, the slope of the line is calculated and represents the reaction rate. The linearity of the reaction rate is confirmed (r^2>0.85). The mean (x±sem) of the control rate is calculated and compared for statistical significance (p<0.05) with drug-treated rates using Dunnett's multiple comparison test. Dose-response relationships can be generated using multiple doses of drug and IC50 values with 95% Cl are estimated using linear regression.

MMP-13 = MMP-13 (Homo sapiens, UniProt P45452); experiment: MMP-13 inhibition, thiopeptide or fluorescent peptide substrate test procedure; conditions: in vitro enzyme inhibition
Experimental: as §1, §2, §3, §4

[1] = target: TNF-α converting enzyme (TACE) (Homo sapiens, UniProt P78536); experiment: TACE inhibition, fluorescent peptidyl substrate test procedure; conditions: in vitro enzyme inhibition
Experimental: Test Procedure for Measuring TACE Inhibition
Using 96-well black microtiter plates, each well receives a solution composed of 10 μL TACE (final concentration 1 μg/mL), 70 μL Tris buffer, pH 7.4 containing 10% glycerol (final concentration 10 mM), and 10 μL of test compound solution in DMSO (final concentration 1 μM, DMSO concentration <1%) and incubated for 10 minutes at room temperature. The reaction is initiated by addition of a fluorescent peptidyl substrate (final concentration 100 μM) to each well and then shaking on a shaker for 5 sec.
The reaction is read (excitation 340 nm, emission 420 nm) for 10 min. and the increase in fluorescence over time is plotted as a linear line. The slope of the line is calculated and represents the reaction rate.
The mean (x±sem) of the control rate is calculated and compared for statistical significance (p<0.05) with drug-treated rates using Dunnett's multiple comparison test.

MMP-9 = MMP-9 (Homo sapiens, UniProt P14780); experiment: MMP-9 inhibition, thiopeptide or fluorescent peptide substrate test procedure; conditions: in vitro enzyme inhibition
Experimental: as §1, §2, §3, §4

MMP-9, sequence (P14780 94-707): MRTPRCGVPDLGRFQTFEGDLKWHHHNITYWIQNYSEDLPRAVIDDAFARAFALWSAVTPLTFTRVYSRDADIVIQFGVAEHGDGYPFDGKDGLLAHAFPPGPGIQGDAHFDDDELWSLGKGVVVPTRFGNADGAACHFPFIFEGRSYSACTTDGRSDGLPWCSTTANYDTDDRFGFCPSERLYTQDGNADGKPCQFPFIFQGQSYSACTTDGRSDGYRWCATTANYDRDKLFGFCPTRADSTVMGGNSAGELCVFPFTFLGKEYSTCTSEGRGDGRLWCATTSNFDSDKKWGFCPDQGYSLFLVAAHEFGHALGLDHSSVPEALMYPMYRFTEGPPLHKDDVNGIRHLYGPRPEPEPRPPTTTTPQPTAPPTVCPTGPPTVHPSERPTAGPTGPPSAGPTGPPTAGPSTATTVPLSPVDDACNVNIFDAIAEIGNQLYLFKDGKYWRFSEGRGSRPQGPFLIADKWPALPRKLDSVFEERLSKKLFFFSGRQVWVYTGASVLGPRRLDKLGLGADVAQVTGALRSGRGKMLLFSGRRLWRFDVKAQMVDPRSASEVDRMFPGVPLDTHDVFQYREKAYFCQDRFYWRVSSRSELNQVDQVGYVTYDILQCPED
TNF-α converting enzyme (TACE), sequence (P78536 215-824, species assumed): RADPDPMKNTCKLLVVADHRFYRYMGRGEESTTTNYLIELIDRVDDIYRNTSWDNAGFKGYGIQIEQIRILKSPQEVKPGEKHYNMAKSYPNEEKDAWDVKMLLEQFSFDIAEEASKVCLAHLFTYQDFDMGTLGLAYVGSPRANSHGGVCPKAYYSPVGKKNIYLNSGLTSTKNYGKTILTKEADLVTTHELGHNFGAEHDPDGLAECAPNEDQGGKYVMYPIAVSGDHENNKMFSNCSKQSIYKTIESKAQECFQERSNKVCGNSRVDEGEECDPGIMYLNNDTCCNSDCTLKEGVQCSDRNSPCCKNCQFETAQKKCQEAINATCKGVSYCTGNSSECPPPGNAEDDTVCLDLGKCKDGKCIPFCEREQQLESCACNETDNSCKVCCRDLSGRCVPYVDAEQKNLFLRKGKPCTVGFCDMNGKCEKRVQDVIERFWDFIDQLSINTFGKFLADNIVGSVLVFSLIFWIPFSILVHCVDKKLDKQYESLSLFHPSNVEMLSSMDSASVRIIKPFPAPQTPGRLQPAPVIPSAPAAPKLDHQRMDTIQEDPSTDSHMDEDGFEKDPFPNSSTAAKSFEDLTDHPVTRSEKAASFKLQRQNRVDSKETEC

| SMILES | inhibition at 1 µM (MMP-1; 1 μM, read-out: MMP-1 % (inhibition) at single concentration) [%] | IC50 (MMP-13) [nM] | IC50 [1] [nM] | IC50 (MMP-1) [nM] | IC50 (MMP-9) [nM] |
| --- | --- | --- | --- | --- | --- |
| CC=C=CCOc1ccc(S(=O)(=O)N2Cc3ccccc3N(C(=O)c3ccccc3)CC2C(=O)NO)cc1 (centres unmarked) [Example 47, 1-Benzoyl-N-hydroxy-4-{[4-(2,3-pentadienyloxy)phenyl]sulfonyl}-2,3,4,5-tetrahydro-1H-1,4-benzodiazepine-3-carboxamide] | 32 | 5 | 1400 | – | – |
| CC=C=CCOc1ccc(S(=O)(=O)N(C)C(C(=O)NO)C(C)C)cc1 (centres unmarked) [Example 22, N-Hydroxy-3-methyl-2-(methyl{[4-(2,3-pentadienyloxy)phenyl]sulfonyl}amino)butanamide] | – | 6 | 48 | 877 | 4 |
| C=C=CCOc1ccc(S(=O)(=O)N2CCSC(C)(C)[C@@H]2C(=O)NO)cc1 [Example 26, (3S)-4-{[4-(2,3-Butadienyloxy)phenyl]sulfonyl}-N-hydroxy-2,2-dimethyl-3-thiomorpholinecarboxamide] | – | 4 | 116 | 50 | – |
| C=C=CCOc1ccc(S(=O)(=O)N(C)C(C(=O)NO)C(C)C)cc1 (centres unmarked) [Example 16, 2-[{[4-(2,3-Butadienyloxy)phenyl]sulfonyl}(methyl)amino]-N-hydroxy-3-methylbutanamide] | – | 3 | 36 | – | – |
| C=C=CCOc1ccc(S(=O)(=O)N2Cc3ccccc3N(C(C)=O)CC2C(=O)NO)cc1 (centres unmarked) [Example 45, 1-Acetyl-4-{[4-(2,3-butadienyloxy)phenyl]sulfonyl}-N-hydroxy-2,3,4,5-tetrahydro-1H-1,4-benzodiazepine-3-carboxamide] | – | 7 | 71 | 2350 | 9 |
| CC=C=CCOc1ccc(S(=O)(=O)NC(C(=O)NO)C(C)C)cc1 (centres unmarked) [Example 19, N-Hydroxy-3-methyl-2-({[4-(2,3-pentadienyloxy)phenyl]sulfonyl}amino)butanamide] | – | 25 | 62 | 8810 | 21 |
| C=C=CCOc1ccc(S(=O)(=O)N2Cc3ccccc3N(C(=O)c3ccccc3)CC2C(=O)NO)cc1 (centres unmarked) [Example 46, 1-Benzoyl-4-(4-buta-2,3-dienyloxy-benzenesulfonyl)-2,3,4,5-tetrahydro-1H-benzo[e][1,4]diazepine-3-carboxylic acid hydroxyamide] | – | 4 | – | 675 | – |
| C=C=CCOc1ccc(S(=O)(=O)NC(C(=O)NO)C(C)C)cc1 (centres unmarked) [Example 13, 2-({[4-(2,3-Butadienyloxy)phenyl]sulfonyl}amino)-N-hydroxy-3-methylbutanamide] | – | 21 | 51 | 2670 | 36 |
